Several values for one entry are separate records, joined by “and”; a condition that tells them apart may be missing. Equal entries are not always repeated.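 96-well plates; 48 h exposure; 5 concentrations. Endpoints by linear interpolation between flanking doses. Not reached: highest tested concentration assigned. GI50: concentration for 50% inhibition of growth.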 Activity calls are given as the source filed them. Rule as the data show it: active = GI50 up to about 1.1 µM and inactive = higher.
Assays:
Experiment in all cases: growth of human tumour cells (NCI), 48 h
OVCAR-4 = tested on: OVCAR-4
A498 = tested on: A498
SN12C = tested on: SN12C
MDA-N = tested on: MDA-N
EKVX = tested on: EKVX
UACC-257 = tested on: UACC-257
SNB-75 = tested on: SNB-75
NCI-H23 = tested on: NCI-H23
CAKI-1 = tested on: CAKI-1
PC-3 = tested on: PC-3
TK-10 = tested on: TK-10
HOP-92 = tested on: HOP-92
NCI/ADR-RES = tested on: NCI/ADR-RES
SK-MEL-2 = tested on: SK-MEL-2
MCF7 = tested on: MCF7
HCC 2998 = tested on: HCC 2998
HCT-116 = tested on: HCT-116
NCI-H522 = tested on: NCI-H522
LOX IMVI = tested on: LOX IMVI

Measured: GI50

CC1=CSC(O)(c2ccc(Cl)cc2)c2noc(=O)n21 (centres undefined)
inactive: OVCAR-4 > 100 µM | A498 > 100 µM | SN12C > 100 µM | MDA-N 88.3 µM | EKVX > 100 µM | UACC-257 24.4 µM | SNB-75 61.7 µM | NCI-H23 48.4 µM | CAKI-1 > 100 µM | PC-3 71.1 µM | TK-10 > 100 µM | HOP-92 94.8 µM | NCI/ADR-RES 53.7 µM | SK-MEL-2 85.9 µM | MCF7 66.4 µM | HCC 2998 14.4 µM | HCT-116 53.5 µM

CCc1ncc(CO)n1Cc1cccc2ccccc12
inactive: OVCAR-4 > 100 µM | A498 > 100 µM | SN12C > 100 µM | MDA-N > 100 µM | EKVX > 100 µM | UACC-257 81.8 µM | SNB-75 31.3 µM | NCI-H23 > 100 µM | CAKI-1 > 100 µM | PC-3 > 100 µM | TK-10 99.5 µM | HOP-92 86.1 µM | NCI/ADR-RES 50.9 µM | NCI-H522 > 100 µM | SK-MEL-2 > 100 µM | MCF7 > 100 µM | HCT-116 > 100 µM

CCCCC(O)(c1ccccc1)C(O)(c1ccccc1)c1c(F)c(F)c(F)c(F)c1F (centres undefined)
inactive: OVCAR-4 44.4 µM | A498 25.5 µM | SN12C 17.1 µM | MDA-N 17.9 µM | EKVX 17.9 µM | UACC-257 18.2 µM | SNB-75 37.2 µM | NCI-H23 29 µM | PC-3 19.1 µM | TK-10 26.4 µM | HOP-92 17.4 µM | NCI/ADR-RES 19.5 µM | MCF7 20.3 µM | HCC 2998 15.7 µM | HCT-116 18.1 µM

CN(C)c1ccc(/N=N\c2cccc3ncccc23)cc1
active: TK-10 0.0425 µM | MCF7 0.063 µM | HCC 2998 0.302 µM
inactive: OVCAR-4 > 100 µM | SN12C 99.8 µM | MDA-N 42 µM | EKVX 11.7 µM | UACC-257 > 100 µM | SNB-75 36.6 µM | NCI-H23 > 100 µM | CAKI-1 > 93.8 µM | PC-3 42.6 µM | HOP-92 36.9 µM | NCI/ADR-RES 49 µM | LOX IMVI 53.2 µM | NCI-H522 20.8 µM | SK-MEL-2 > 100 µM | HCT-116 52.7 µM

CCN1C(=O)CS/C1=N\NC(=O)CSc1nc2ccccc2c(=O)n1CC
inactive: OVCAR-4 > 100 µM | A498 > 100 µM | SN12C > 100 µM | MDA-N > 100 µM | EKVX > 100 µM | UACC-257 > 100 µM | SNB-75 > 100 µM | NCI-H23 > 100 µM | CAKI-1 > 100 µM | PC-3 > 100 µM | TK-10 > 100 µM | NCI/ADR-RES > 100 µM | LOX IMVI > 100 µM | NCI-H522 > 100 µM | SK-MEL-2 > 100 µM | MCF7 > 100 µM | HCC 2998 > 100 µM | HCT-116 > 100 µM

Cc1cc(C)c(S(=O)(=O)N(CCCCCCN)OCCCON(CCCCCCN)S(=O)(=O)c2c(C)cc(C)cc2C)c(C)c1
inactive: OVCAR-4 1.67 µM | A498 1.7 µM | SN12C 1.9 µM | MDA-N 1.88 µM | EKVX 1.79 µM | UACC-257 1.69 µM | SNB-75 1.79 µM | NCI-H23 1.63 µM | CAKI-1 1.94 µM | PC-3 1.77 µM | TK-10 1.58 µM | HOP-92 1.46 µM | NCI/ADR-RES 13.2 µM | LOX IMVI 1.7 µM | NCI-H522 1.73 µM | SK-MEL-2 1.89 µM | MCF7 1.91 µM | HCT-116 1.69 µM

N#Cc1nnn(-c2ccccc2)c1O
inactive: OVCAR-4 > 100 µM | A498 > 100 µM | SN12C > 100 µM | MDA-N > 100 µM | EKVX > 100 µM | UACC-257 > 100 µM | SNB-75 > 100 µM | NCI-H23 > 100 µM | CAKI-1 > 100 µM | PC-3 > 100 µM | TK-10 > 100 µM | NCI/ADR-RES > 100 µM | LOX IMVI > 100 µM | NCI-H522 > 100 µM | SK-MEL-2 > 100 µM | MCF7 > 100 µM | HCC 2998 > 100 µM | HCT-116 > 100 µM

Cn1c(=O)oc2cc(C(=O)CN3CCN(Cc4ccc5c(c4)OCO5)CC3)c(Cl)cc21
inactive: SN12C > 100 µM | MDA-N > 100 µM | SNB-75 > 100 µM | NCI-H23 > 100 µM | CAKI-1 > 100 µM | PC-3 > 100 µM | NCI/ADR-RES > 100 µM | LOX IMVI 80.4 µM | SK-MEL-2 > 100 µM | MCF7 > 100 µM | HCC 2998 > 100 µM | HCT-116 > 100 µM

O=C(/C=C/c1ccc(O)c([N+](=O)[O-])c1)CC(=O)/C=C/c1ccc(O)c([N+](=O)[O-])c1
inactive: OVCAR-4 79.3 µM | SN12C > 100 µM | MDA-N 86.5 µM | EKVX 50.9 µM | UACC-257 > 100 µM | SNB-75 > 100 µM | NCI-H23 34.8 µM | PC-3 56.4 µM | TK-10 92.5 µM | NCI/ADR-RES 35.3 µM | LOX IMVI 14.4 µM | NCI-H522 36.3 µM | SK-MEL-2 41.1 µM | MCF7 53.5 µM | HCT-116 41.6 µM

N#CCC(=O)N/N=C\C(O)C(O)C(O)C(O)CO (centres undefined)
inactive: A498 > 100 µM | SN12C > 100 µM | MDA-N > 100 µM | UACC-257 > 100 µM | SNB-75 > 100 µM | NCI-H23 > 100 µM | CAKI-1 > 100 µM | PC-3 > 100 µM | TK-10 > 100 µM | NCI/ADR-RES > 100 µM | LOX IMVI > 100 µM | NCI-H522 > 100 µM | SK-MEL-2 > 100 µM | MCF7 > 100 µM | HCC 2998 > 100 µM

Cc1cc(NS(=O)(=O)c2ccc(Nc3c4ccccc4nc4ccc(C(=O)Nc5ccc(S(=O)(=O)N=C(N)N)cc5)cc34)cc2)no1
inactive: OVCAR-4 > 100 µM | SN12C > 100 µM | MDA-N > 100 µM | EKVX > 100 µM | UACC-257 > 100 µM | SNB-75 > 100 µM | NCI-H23 > 100 µM | CAKI-1 > 100 µM | PC-3 > 100 µM | TK-10 > 100 µM | HOP-92 > 100 µM | NCI/ADR-RES > 100 µM | LOX IMVI > 100 µM | NCI-H522 > 100 µM | SK-MEL-2 > 100 µM | MCF7 > 100 µM | HCC 2998 > 100 µM | HCT-116 > 100 µM

COc1ccc(C2CC(=O)CC(c3ccc(OC)cc3)C23C(=O)NC(=O)NC3=O)cc1 (centres undefined)
inactive: OVCAR-4 67 µM | SN12C 46.8 µM | MDA-N 31.8 µM | EKVX 32.9 µM | UACC-257 38.1 µM | SNB-75 25.8 µM | NCI-H23 23.4 µM | CAKI-1 33.1 µM | PC-3 33.9 µM | TK-10 89.5 µM | HOP-92 25.1 µM | NCI/ADR-RES 34.4 µM | LOX IMVI 30.5 µM | NCI-H522 23.3 µM | SK-MEL-2 18.5 µM | MCF7 25.1 µM | HCC 2998 20.3 µM | HCT-116 27.4 µM

O=C(c1ccco1)N(C(=O)N1CCCCC1)c1ccccc1
inactive: A498 > 100 µM | SN12C > 100 µM | MDA-N > 100 µM | EKVX > 100 µM | UACC-257 > 100 µM | NCI-H23 > 100 µM | CAKI-1 > 100 µM | PC-3 > 100 µM | TK-10 > 100 µM | NCI/ADR-RES > 100 µM | LOX IMVI > 100 µM | SK-MEL-2 > 100 µM | MCF7 > 100 µM | HCT-116 > 100 µM

O=C(O)CCCC(=O)Nn1c(Cc2ccc(Cl)cc2)n[nH]c1=O
inactive: OVCAR-4 > 100 µM | A498 71.6 µM | SN12C > 100 µM | MDA-N > 100 µM | EKVX > 100 µM | UACC-257 > 100 µM | SNB-75 > 10 µM | NCI-H23 > 100 µM | CAKI-1 > 100 µM | PC-3 > 100 µM | TK-10 > 100 µM | HOP-92 > 100 µM | NCI/ADR-RES > 100 µM | LOX IMVI > 100 µM | NCI-H522 71.8 µM | SK-MEL-2 > 100 µM | MCF7 > 100 µM | HCT-116 > 100 µM

CN(C)CCOC1(Cc2ccc(F)cc2)CCC(C(C)(C)C)CC1 (centres undefined)
inactive: A498 12.6 µM and 14.7 µM | SN12C 11.3 µM and 12 µM | MDA-N 3.2 µM and 5.93 µM | EKVX 11 µM and 16 µM | UACC-257 5.58 µM and 4.09 µM | NCI-H23 13.3 µM and 12 µM | CAKI-1 6.47 µM and 7.69 µM | PC-3 5.85 µM and 5.07 µM | TK-10 6.95 µM and 12 µM | HOP-92 12.2 µM | NCI/ADR-RES 12.9 µM and 10.6 µM | LOX IMVI 2.42 µM and 3.2 µM | NCI-H522 6.08 µM and 10.7 µM | MCF7 6.04 µM and 5.24 µM | HCC 2998 2.96 µM and 3.14 µM | HCT-116 4.39 µM and 4.75 µM

CC1(C)[C@@H](Cn2cnc3c(Cl)nc(N)nc32)CC[C@@]1(C)CO
inactive: OVCAR-4 > 100 µM | A498 > 100 µM | SN12C 57.3 µM | MDA-N 32.4 µM | EKVX 58.9 µM | UACC-257 30.4 µM | SNB-75 > 100 µM | CAKI-1 28.2 µM | PC-3 96.6 µM | TK-10 > 100 µM | HOP-92 > 100 µM | NCI/ADR-RES 83.4 µM | LOX IMVI 27.9 µM | SK-MEL-2 18.5 µM | MCF7 > 100 µM | HCC 2998 22.5 µM | HCT-116 34.3 µM

Reference: ChEMBL document CHEMBL1201862, “PubChem BioAssay data set” (2004)
